Source: patent US10618887B2 (Sunesis Pharmaceuticals, Inc., priority 2012, dated 2020)

Tests used:
[1] = biological target: T1, hERG (human ether-à-go-go-related gene) potassium channel (Homo sapiens, UniProt Q12809); experiment: FastPatch hERG inhibition assay (QPatch HT, HEK293 cells stably transfected with hERG cDNA); assay type: cell-based; settings: for IC50: HEK293 cells, automated patch clamp, IC50 estimated from hERG inhibition data
T1 construct: host or cells: HEK293
Excerpt: (§1) Protocol for FastPatch hERG Inhibition Assay:
(§2) The cardiac potassium channel, hERG, is responsible for a rapid delayed rectifier current (IKr) in human ventricle and inhibition of IKr is the most common cause of cardiac action potential prolongation by non-cardiac drugs (see, e.g., Weirich and Antoni, Basic Res. Cardiol., 93, Suppl. 1, 125-32, 1998; Yap and Camm, Clin. Exp. Allergy, 29, Suppl. 3, 174-81, 1999). Increased action potential duration has been cited as a factor in causing prolongation of the QT interval that has been associated with a dangerous ventricular arrhythmia, torsade de pointes (Brown and Rampe, Pharmaceutical News, 7, 15-20, 2000).
(§3) The in vitro effects of provided compounds was investigated on the hERG (human ether-à-go-go-related gene) potassium channel current (a surrogate for IKr, the rapidly activating, delayed rectifier cardiac potassium current) expressed in human embryonic kidney (HEK293) cells stably transfected with hERG cDNA. Cells were placed in HEPES-buffered physiological saline solution in a glass-lined 96-well plate and loaded with appropriate amounts of test and control solutions for a duration of a 3-minute exposure at each concentration. Test compound was diluted in 0.3% DMSO. An automated parallel patch clamp system, QPatch HT (Sophion Bioscience A/S, Denmark), was used to evaluate at various concentrations (e.g., 10 μM). The IC50 values was estimated based on the hERG inhibition data. The study was performed at ChanTest (14656 Neo Parkway, Cleveland, Ohio). The QPatch screen is further described by Janzen and Bernasconi (eds.), High Throughput Screening, Methods and Protocols, Second Edition, vol. 565, chapter 10, pg. 209-223, 2009.

human PXR = biological target: T2, human PXR (Homo sapiens, UniProt O75469); experiment: PXR nuclear receptor activation reporter gene assay in human DPX2 cells; assay type: cell-based; settings: 24 hr treatment
T2 construct: expressed in transfected cells; host or cells: DPX2 tumor cell line
T2 sequence (O75469 1-434): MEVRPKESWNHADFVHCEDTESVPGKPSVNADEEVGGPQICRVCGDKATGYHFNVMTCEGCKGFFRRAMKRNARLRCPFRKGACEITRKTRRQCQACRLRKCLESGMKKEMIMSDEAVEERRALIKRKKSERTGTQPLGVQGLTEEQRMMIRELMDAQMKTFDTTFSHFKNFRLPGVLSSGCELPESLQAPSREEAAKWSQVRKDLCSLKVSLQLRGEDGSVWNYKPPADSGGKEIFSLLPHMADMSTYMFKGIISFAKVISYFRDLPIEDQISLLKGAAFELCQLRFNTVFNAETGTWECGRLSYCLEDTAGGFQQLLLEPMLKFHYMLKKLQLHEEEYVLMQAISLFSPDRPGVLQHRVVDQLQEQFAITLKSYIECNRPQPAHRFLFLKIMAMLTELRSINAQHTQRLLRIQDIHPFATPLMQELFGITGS
Excerpt: Study Protocol to Determine Activation of the PXR Nuclear Receptor in Human DPX2 Cells
Based on this pathway of CYP3A4 induction, cell-based PXR reporter gene assay is commonly used to screen new molecular entities (NMEs) in early drug discovery stage, for their potential to induce CYP3A4 (Luo G, et al.; Drug Metab Dispos. 2002 July; 30(7):795-804.) Studies were designed to evaluate the effect of new molecular entities (NMEs) on the activation of human PXR in DPX2 cells. Cell lines stably transfected with the PXR nuclear receptor and corresponding response elements were seeded into 96-well plates. Twenty-four hr after seeding, cells were treated with 6 distinct concentrations of NMEs in triplicate wells (see below), and cells then returned to the incubator for an additional 24 hr. At the end of this incubation period, the number of viable cells/well were determined using Promega's Cell Titer Fluor cytotoxicity assay. Following this assay, Promega's ONE-Glo was added to the same wells and reporter gene activity assessed.
The test system consisted of the stably transformed DPX2 tumor cell line plated on 96-well microtiter plates. An expression vector harboring the PXR nuclear receptor plus the appropriate enhancers and promoters linked to the luciferase reporter gene have been stably integrated into these tumor cell lines. Receptor activation was assessed by monitoring reporter gene activity, and by comparing the results to vehicle-treated cells. Positive controls consist of cells treated with 6 different concentrations (0.1, 0.5, 1, 5, 10, and 20 μM) of rifampicin. In this manner, compounds activating PXR can be easily and rapidly identified. Since stably-integrated cell lines were used, it is possible to observe from 3- to 70-fold receptor activation.
Data processed using MS-Excel was calculated as the mean (n=3) and % CV of the fold PXR activation relative to vehicle-treated cells at each of the 6 different doses. All activation data was normalized to the number of viable cells/well. Results were also expressed as a percentage of the response given by the appropriate positive control at a 10 μM dose. EC50 and Emax values were derived for test compounds that give receptor activation using nonlinear regression of typical log dose-response curves (Prism V5.0c, GraphPad Software, San Diego, Calif.).
d) New Molecular Entities (NMEs): Test Compounds were Tested at 0.05, 0.1, 0.5, 1, 2.5, and 10 μM

BTK = biological target: T3, BTK (Homo sapiens, UniProt Q06187); experiment: In vitro BTK kinase assay: BTK-POLYGAT-LS assay; assay type: biochemical; settings: ATP 10 uM, polyGAT 100 nM, BTK 0.25 nM, 30 minutes; read-out: IC50 against BTK (polyGAT assay)
T3 construct: purchased Upstate 14-552
T3 sequence (Q06187 whole entry): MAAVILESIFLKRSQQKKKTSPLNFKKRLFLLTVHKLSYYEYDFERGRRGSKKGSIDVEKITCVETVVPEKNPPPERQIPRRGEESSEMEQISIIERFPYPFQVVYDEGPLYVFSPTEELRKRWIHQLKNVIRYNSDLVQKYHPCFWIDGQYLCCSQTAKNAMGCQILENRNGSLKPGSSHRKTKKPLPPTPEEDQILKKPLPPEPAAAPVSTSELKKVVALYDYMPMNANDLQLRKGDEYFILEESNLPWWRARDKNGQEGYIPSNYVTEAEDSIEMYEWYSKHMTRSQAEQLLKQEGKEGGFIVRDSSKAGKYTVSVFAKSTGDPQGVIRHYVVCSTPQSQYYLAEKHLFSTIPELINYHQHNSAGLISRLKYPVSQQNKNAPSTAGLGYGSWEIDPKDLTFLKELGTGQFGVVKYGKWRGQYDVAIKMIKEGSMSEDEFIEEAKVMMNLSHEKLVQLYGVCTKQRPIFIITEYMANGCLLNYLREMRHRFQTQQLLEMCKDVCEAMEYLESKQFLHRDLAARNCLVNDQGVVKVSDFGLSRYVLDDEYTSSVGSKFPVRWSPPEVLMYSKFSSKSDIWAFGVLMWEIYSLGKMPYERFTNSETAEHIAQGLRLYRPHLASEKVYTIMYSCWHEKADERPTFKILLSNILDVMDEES
Description: In vitro BTK kinase assay: BTK-POLYGAT-LS ASSAY. The purpose of the BTK in vitro assay was to determine compound potency against BTK through the measurement of IC50. Compound inhibition was measured after monitoring the amount of phosphorylation of a fluorescein-labeled polyGAT peptide (Invitrogen PV3611) in the presence of active BTK enzyme (Upstate 14-552), ATP, and inhibitor. The BTK kinase reaction was done in a black 96 well plate (costar 3694). For a typical assay, a 24 uL aliquot of an ATP/peptide master mix (final concentration; ATP 10 uM, polyGAT 100 nM) in kinase buffer (10 mM Tris-HCl pH 7.5, 10 mM MgCl2, 200 uM […], 5 mM DTT, 0.01% Triton X-100, and 0.2 mg/ml casein) was added to each well. Next, 1 uL of a 4-fold, 40× compound titration in 100% DMSO solvent was added, followed by adding 15 uL of BTK enzyme mix in 1× kinase buffer (with a final concentration of 0.25 nM). The assay was incubated for 30 minutes before being stopped with 28 uL of a 50 mM EDTA solution. Aliquots (5 uL) of the kinase reaction were transferred to a low volume white 384 well plate (Corning 3674), and 5 uL of a 2× detection buffer (Invitrogen PV3574, with 4 nM Tb-PY20 antibody, Invitrogen PV3552) was added. The plate was covered and incubated for 45 minutes at room temperature. Time resolved fluorescence (TRF) on Molecular Devices M5 (332 nm excitation; 488 nm emission; 518 nm fluorescein emission) was measured. IC50 values were calculated using a four parameter fit with 100% enzyme activity determined from the DMSO control and 0% activity from the EDTA control.

hERG potassium channel = biological target: T4, hERG potassium channel (Homo sapiens, UniProt Q12809); experiment: FastPatch hERG inhibition assay (QPatch HT, HEK293 cells stably transfected with hERG cDNA); assay type: cell-based; settings: human, HEK293 cells stably transfected with hERG cDNA; 10 uM, HEK293 cells, automated patch clamp
T4 construct: host or cells: HEK293
T4 sequence (Q12809 whole entry): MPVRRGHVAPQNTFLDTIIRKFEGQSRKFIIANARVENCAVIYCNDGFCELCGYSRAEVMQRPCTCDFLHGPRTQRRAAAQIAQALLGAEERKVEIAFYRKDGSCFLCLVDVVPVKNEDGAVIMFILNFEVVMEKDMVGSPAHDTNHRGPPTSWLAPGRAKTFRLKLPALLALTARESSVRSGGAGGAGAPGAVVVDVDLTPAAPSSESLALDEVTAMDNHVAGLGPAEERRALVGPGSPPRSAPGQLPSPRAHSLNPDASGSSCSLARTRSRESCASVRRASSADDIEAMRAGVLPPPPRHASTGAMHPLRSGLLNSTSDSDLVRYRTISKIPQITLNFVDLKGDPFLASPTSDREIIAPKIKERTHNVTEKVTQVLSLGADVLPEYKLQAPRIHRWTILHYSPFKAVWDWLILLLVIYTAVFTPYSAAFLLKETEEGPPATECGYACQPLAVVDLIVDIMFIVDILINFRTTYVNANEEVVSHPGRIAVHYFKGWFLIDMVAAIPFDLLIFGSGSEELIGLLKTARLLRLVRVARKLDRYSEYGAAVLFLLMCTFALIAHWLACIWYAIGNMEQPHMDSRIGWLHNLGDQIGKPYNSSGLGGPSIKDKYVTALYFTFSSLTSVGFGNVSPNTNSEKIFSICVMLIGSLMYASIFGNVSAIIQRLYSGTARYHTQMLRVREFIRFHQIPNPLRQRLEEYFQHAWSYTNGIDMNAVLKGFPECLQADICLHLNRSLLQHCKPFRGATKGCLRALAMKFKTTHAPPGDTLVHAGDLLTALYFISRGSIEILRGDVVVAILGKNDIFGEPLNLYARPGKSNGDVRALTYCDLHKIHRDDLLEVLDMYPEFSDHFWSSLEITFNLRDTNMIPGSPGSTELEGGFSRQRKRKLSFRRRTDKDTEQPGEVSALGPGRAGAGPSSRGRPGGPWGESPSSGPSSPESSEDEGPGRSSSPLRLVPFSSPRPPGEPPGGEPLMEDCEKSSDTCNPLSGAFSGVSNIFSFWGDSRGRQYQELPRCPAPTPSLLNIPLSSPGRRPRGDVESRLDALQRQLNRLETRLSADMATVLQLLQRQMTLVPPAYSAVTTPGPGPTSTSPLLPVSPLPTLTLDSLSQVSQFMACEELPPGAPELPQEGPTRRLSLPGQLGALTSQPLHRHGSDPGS
Excerpt: as §1, §2, §3

T1 sequence (Q12809 whole entry): as above

Row | Structure (SMILES) | PXR % induction (relative to 10 uM rifampin) (human PXR) | IC50 (BTK) | IC50 [1] | observable activity in the hERG assay at 10 uM ([1]; 10 uM, no IC50 available) | inhibition at 3 min, 10 µM (hERG potassium channel)
1 | CN(C)C(=O)[C@H]1CCN(c2ncnc(N)c2F)C[C@@H]1N1CCC[C@@H](Nc2cc(Cl)cc(C(F)(F)F)c2)C1=O [Compound I-3, (3R,3′R,4′S)-1′-(6-amino-5-fluoropyrimidin-4-yl)-3-((3-chloro-5-(trifluoromethyl)phenyl)amino)-N,N-dimethyl-2-oxo-[1,3′-bipiperidine]-4′-carboxamide] | 47% | 2.07 nM | 14600 nM | – | –
2 | NC(=O)[C@H]1CCN(c2ncnc(N)c2F)C[C@@H]1N1CCC[C@@H](Nc2cc(F)cc(C(F)(F)F)c2)C1=O [Compound I-5, (3R,3′R,4′S)-1′-(6-amino-5-fluoropyrimidin-4-yl)-3-((3-fluoro-5-(trifluoromethyl)phenyl)amino)-2-oxo-[1,3′-bipiperidine]-4′-carboxamide] | 90% | 1.6 nM | – | no observable activity | –
3 | CN1CCN(C(=O)[C@H]2CCN(c3ncnc(N)c3F)C[C@@H]2N2CCC[C@@H](Nc3cc(Cl)cc(C(F)(F)F)c3)C2=O)CC1 [Compound I-7] | – | 1.2 nM | – | – | 65%
4 | Nc1ncnc(N2CCC[C@@H](N3CCC[C@@H](Nc4cc(Cl)cc(C(F)(F)F)c4)C3=O)C2)c1F [I^C, reference compound] | 95% | 2 nM | 1180 nM | – | 87%

More lines, main results first:

Row | PXR % induction (relative to 10 uM rifampin) (human PXR) | IC50 (BTK) | Structure (SMILES) | IC50 [1] | observable activity in the hERG assay at 10 uM ([1]; 10 uM, no IC50 available) | inhibition at 3 min, 10 µM (hERG potassium channel)
5 | 62% | 0.73 nM | NC(=O)[C@H]1CCN(c2ncnc(N)c2F)C[C@@H]1N1CCC[C@@H](Nc2cc(Cl)cc(C(F)(F)F)c2)C1=O [Compound I-1, (3R,3′R,4′S)-1′-(6-amino-5-fluoropyrimidin-4-yl)-3-((3-chloro-5-(trifluoromethyl)phenyl)amino)-2-oxo-[1,3′-bipiperidine]-4′-carboxamide] | 15600 nM | – | –
6 | 42% | 0.68 nM | NC(=O)[C@H]1CCN(c2ncnc(N)c2F)C[C@@H]1N1CCC[C@@H](Nc2cc(F)cc(Cl)c2)C1=O [Compound I-2] | 30000 nM | – | –
7 | 67% | 0.63 nM | CNC(=O)[C@H]1CCN(c2ncnc(N)c2F)C[C@@H]1N1CCC[C@@H](Nc2cc(Cl)cc(C(F)(F)F)c2)C1=O [Compound I-4] | 13700 nM | – | –
8 | – | < 1 nM | NC(=O)[C@H]1CCN(c2ncnc(N)c2F)C[C@@H]1N1CCC[C@@H](Nc2cc(Cl)cc(OC(F)(F)F)c2)C1=O [Compound I-6] | – | – | < 20%
